As a reminder, the IC50 is the concentration that inhibits the measured activity by half.

Like-named read-outs stand apart in the source and are kept apart here.

Results on 9 compounds are retold here after patent US12617765B2, “Cannabinoid derivatives” (CANOPY GROWTH CORPORATION, priority 2019, dated 2026).

Assay [1] addresses T1, human CB2 receptor (Homo sapiens, UniProt P34972).
T1 construct: host or cells: CHO-K1
As to the kind of experiment: CB2 radioligand competitive binding assay ([3H]CP 55,940 displacement). The conditions noted are these: for Selectivity CB2: fold difference in selectivity between CB1 and CB2 binding, in the column of the receptor with the higher binding affinity. The procedure:
Compounds of the present disclosure were tested for CB1 receptor binding affinity and for CB2 receptor binding affinity. As used herein, “binding affinity” is represented by the IC50 value, which was experimentally determined as described herein. The lower the IC50 value the higher the binding affinity. A compound of the present disclosure may be said to have “binding selectivity” if it has a higher binding affinity for one receptor compared to the other.
The membranes were prepared from CHO-K1 (Chinese hamster ovary) cells stably transfected with the human CB2 receptor (Cat. #ES-111-C; Perkin Elmer, Boston, Mass.). The cells were grown adherently and maintained in Ham's F12 medium containing 10% fetal bovine serum (FBS), penicillin, streptomycin and geneticin (G418) at 37° C. in a humid atmosphere of 5% CO2 following the manufacturer's instructions.
For membrane preparation the cells were washed with PBS and scraped off the plates in cold homogenization buffer (25 mM HEPES (pH 7.4), 2 mM EDTA) containing protease inhibitor cocktail (Sigma Cat. #P8340). The cell suspension was homogenized with a Pro-PK-01200D Polytron Homogenizer (Pro Scientific) and then centrifuged for 30 min at 120,000×g. The supernatant was discarded and the pellet was re-suspended in the homogenization buffer and stored at −80° C. until the time of use.
In this experiment, 3H radiolabeled CP 55,940, i.e. [3H]CP 55,940 (Perkin Elmer, Boston, Mass.), was used as a radioligand for the CB2 receptor to determine the binding affinity of compounds for the CB2 receptor (Scheme 5; above).
The competition binding experiments (single dose and dose-response) were performed by incubating 0.6 nM of [3H]CP55,940 (specific activity 101 Ci/mmol, Perkin Elmer) and different concentrations of compounds disclosed herein with membranes prepared as above from CHO-K1 cells expressing human CB2 receptor (1 μg of protein/well), 50 mM Tris-HCl (pH 7.4), 5 mM MgCl2, 1 mM CaCl2, and 2 mg/mL BSA.
For the single dose experiments, the compound stocks (usually 10 mM in DMSO) were diluted to working stocks in the binding buffer to give the final compound concentrations of 10 μM and 1 μM. For the dose-response experiments the test compounds were sequentially diluted to provide the desired concentration range for the IC50 determination. In each case the compounds were pre-incubated with the membrane for 20 min, before adding the radioligand.
After incubation with the radioligand for 60 min at 37° C., the incubation was terminated by rapid filtration of assay mixture through MultiScreen®HTS+96-well filter plates (Millipore, Cat. #MSFCNXB), pre-soaked for 60 min with 50 mM Tris-HCl (pH 7.4) containing 0.33% polyethylenimine (PEI). The nonspecific binding (NSB) was determined in the presence of 10 μM unlabelled CP55,940. After drying the filter plate at 50° C. for at least 60 min, the filter-bound radioactivity was determined by scintillation spectrometry using the 1450 MicroBeta Plate Counter (Perkin Elmer, Boston, Mass.). From the dose-response experiments, the IC50 values were determined (see Table 1, CB2 IC50).

Assay [2] deals with T2, human CB1 receptor (Homo sapiens, UniProt P21554).
T2 construct: host or cells: CHO-K1
T2 sequence (P21554 whole entry): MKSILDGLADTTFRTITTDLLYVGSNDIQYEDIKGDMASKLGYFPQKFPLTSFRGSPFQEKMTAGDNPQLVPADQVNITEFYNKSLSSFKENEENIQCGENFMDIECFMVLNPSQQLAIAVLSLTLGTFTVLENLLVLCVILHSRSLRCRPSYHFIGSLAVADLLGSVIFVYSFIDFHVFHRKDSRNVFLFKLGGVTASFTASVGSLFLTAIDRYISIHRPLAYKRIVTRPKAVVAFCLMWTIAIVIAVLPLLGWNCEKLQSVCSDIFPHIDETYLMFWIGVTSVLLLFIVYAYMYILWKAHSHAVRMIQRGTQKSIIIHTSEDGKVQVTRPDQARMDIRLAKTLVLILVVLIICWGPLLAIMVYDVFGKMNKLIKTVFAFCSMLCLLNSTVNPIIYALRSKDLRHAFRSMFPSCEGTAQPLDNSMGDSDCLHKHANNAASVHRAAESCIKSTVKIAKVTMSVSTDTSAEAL
As to the kind of experiment: CB1 radioligand competitive binding assay ([3H]CP 55,940 displacement).

[3] abbreviates: 0.6 nM [3H]CP55,940, membranes of CHO-K1 cells expressing human CB2 receptor, read-out: CB2 IC50.
[4] abbreviates: 0.8 nM [3H]CP 55,940, membranes of CHO-K1 cells expressing human CB1 receptor, read-out: CB1 IC50.

T1 sequence (P34972 whole entry): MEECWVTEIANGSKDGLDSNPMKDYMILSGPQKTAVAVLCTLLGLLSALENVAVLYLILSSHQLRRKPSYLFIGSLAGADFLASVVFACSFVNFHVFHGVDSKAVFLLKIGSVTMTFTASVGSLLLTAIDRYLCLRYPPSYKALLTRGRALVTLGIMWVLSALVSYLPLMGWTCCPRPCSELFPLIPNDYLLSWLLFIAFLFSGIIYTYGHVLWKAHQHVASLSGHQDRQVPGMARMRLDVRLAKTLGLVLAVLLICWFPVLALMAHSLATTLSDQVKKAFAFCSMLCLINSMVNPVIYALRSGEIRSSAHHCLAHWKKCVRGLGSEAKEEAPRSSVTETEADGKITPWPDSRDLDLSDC

In the case of `CCCCCc1cc(O)c(C/C=C(\C)CCC=C(C)C)c2c1C(=O)OCO2` [Compound 1, 8-(3,7-dimethylocta-2,6-dien-1-yl)-7-hydroxy-5-pentyl-4H-benzo[d][1,3]dioxin-4-one], the half-inhibitory concentration (IC50) in assay [1] (setting [3]) is 1000 to 2490 nM; in assay [2] (setting [4]) it was more than 5000 nM. Besides, the “Selectivity CB2” value in assay [1] worked out at 4.07 fold.
With `CCCCCc1cc(O)c(C/C=C(\C)CCC=C(C)C)c2c1C(=O)OC(c1ccccc1)O2` (stereo not drawn) [Compound 3, 8-(3,7-dimethylocta-2,6-dien-1-yl)-7-hydroxy-5-pentyl-2-phenyl-4H-benzo[d][1,3]dioxin-4-one], in assay [1], the IC50 is 1000 to 2490 nM and the “Selectivity CB2” value was 1.19 fold. The IC50 in assay [2] fell in the range of 1000 to 2490 nM.
With `CCCCCc1cc(O)c(C/C=C(\C)CCC=C(C)C)c2c1C(=O)OC(C)(COC)O2` (stereo not drawn) [Compound 11, 8-(3,7-dimethylocta-2,6-dien-1-yl)-7-hydroxy-2-(methoxymethyl)-2-methyl-5-pentyl-4H-benzo[d][1,3]dioxin-4-one], in assay [1], the IC50 is less than 1000 nM and the “Selectivity CB2” value was found to be 4.46 fold. The compound also registered an IC50 in assay [2] of 2500 to 4990 nM.
In the case of `CCCCCc1cc(O)c(C/C=C(\C)CCC=C(C)C)c2c1C(=O)OC(CC(C)=O)(c1ccccc1)O2` (stereo not drawn) [Compound 12, 8-(3,7-dimethylocta-2,6-dien-1-yl)-7-hydroxy-2-(2-oxopropyl)-5-pentyl-2-phenyl-4H-benzo[d][1,3]dioxin-4-one], in assay [1], the IC50 is less than 1000 nM and the “Selectivity CB2” value turned out to be 4.31 fold. This compound also registered an IC50 in assay [2] of 2500 to 4990 nM.
With `CCCCCc1cc(O)c(C/C=C(\C)CCC=C(C)C)c2c1C(=O)OC(CC(C)=O)O2` (stereo not drawn) [Compound 14, 8-(3,7-dimethylocta-2,6-dien-1-yl)-7-hydroxy-2-(2-oxopropyl)-5-pentyl-4H-benzo[d][1,3]dioxin-4-one], the results for the IC50 in assay [1] (setting [3]) and in assay [2] (setting [4]) were 1000 to 2490 nM and 2500 to 4990 nM, respectively. In addition, the “Selectivity CB2” value in assay [1] came to 2.64 fold.
On the same counts, the results for `CCCCCc1cc(O)c(C/C=C(\C)CCC=C(C)C)c2c1C(=O)OC(CC)O2` (stereo not drawn) [Compound 16, 8-(3,7-dimethylocta-2,6-dien-1-yl)-2-ethyl-7-hydroxy-5-pentyl-4H-benzo[d][1,3]dioxin-4-one] are 1000 to 2490 nM, 2500 to 4990 nM and 2.04 fold.
On the same counts, the results for `CCCCCc1cc(O)c(C/C=C(\C)CCC=C(C)C)c2c1C(=O)OC(CC(C)=O)(c1ccc(OC)cc1)O2` (stereo not drawn) [Compound 17, 8-(3,7-dimethylocta-2,6-dien-1-yl)-7-hydroxy-2-(4-methoxyphenyl)-2-(2-oxopropyl)-5-pentyl-4H-benzo[d][1,3]dioxin-4-one] are less than 1000 nM, 2500 to 4990 nM and 5.45 fold.
For `CCCc1cc(O)c(C/C=C(\C)CCC=C(C)C)c2c1C(=O)OCO2` [Compound 18, 8-(3,7-dimethylocta-2,6-dien-1-yl)-7-hydroxy-5-propyl-4H-benzo[d][1,3]dioxin-4-one], in assay [1], the concentration for half-maximal inhibition (IC50) lay within 1000 to 2490 nM and the “Selectivity CB2” value is 3.88 fold. The compound also came in with an IC50 in assay [2] of more than 5000 nM.
For `CCCc1cc(O)c(C/C=C(\C)CCC=C(C)C)c2c1C(=O)OC(c1ccccc1)O2` (stereo not drawn) [Compound 19, 8-(3,7-dimethylocta-2,6-dien-1-yl)-7-hydroxy-2-phenyl-5-propyl-4H-benzo[d][1,3]dioxin-4-one], in that order: 1000 to 2490 nM, 3.92 fold and more than 5000 nM.
